Tested on: leader cell sub-population (H1299 leader cells)
Experiment: drug screening of rare lung cancer cells isolated by spatiotemporal genomic and cellular analysis (SaGA)
Assay type: cell-based, human
Conditions: rare lung cancer cells identified by SaGA, then drug screening; see FIG. 2A
Text: See e.g., Burrell et al., Nature, 2013, 501:338-345. Spatiotemporal genomic and cellular analysis (SaGA) is a technique which involves a combination of microscopy and genomics to isolate rare cells. See Konen et al. Nat Comm, 2017, 8:15078. Dendra2 is a photoconvertible fluorophore which emits green fluorescence. However, when excited by 405 nm light, green fluorescence is converted to red fluorescence due to cleavage of a histidine. Therefore, with single cell precision, any cancer cell expressing Dendra2 can be optically highlighted (turned red) using a point scanning confocal microscope. A region of interest is drawn around the cell(s) of interest, based upon by transmitted light or fluorescent protein tags. This region can be exposed to a 405 nm laser, resulting in near instantaneous photoconversion of Dendra2, and photomarking the cell red. Single cells can be photoconverted, without inducing any measurable photoconversion of neighboring cells. Cells are extracted from the 3-D environment using dispase for 15 minutes (collagenase for collagen). Cells are then sorted to separate red photoconverted cells from green cells using a FACS. Isolated cells are grown in culture using standard cell culture techniques. Spatiotemporal genomic and cellular analysis (SaGA) was used to identify rare lung cancer cells which were then subject to drug screening.

CCCCC(CC)CNC(=N)NC(=N)NCCCCCCNC(=N)NC(=N)NCC(CC)CCCC (stereo not shown) [alexidine, 1,1′-(hexane-1,6-diyl)bis(5-(2-ethylhexyl)biguanidine)]
effect on metastasis / invasive cell pack: disrupt metastasis by targeting a rare cell type within the invasive cell pack

Reference: patent US12582618B2, “Bis-biguanide compounds, pharmaceutical compositions and uses in managing cancer” (Emory University, priority 2019, dated 2026)
